Values of other authors in patent US7446098B2, “Combination therapy for treating protein deficiencies” (Mount Sinai School of Medicine of New York University, priority 2003, dated 2008).
Numbering of substitutions follows the chain as printed.

Experiments:
[1] = system: mutant α-Gal A (R301Q or Q279E); settings: lymphoblasts from Fabry patients with R301Q or Q279E mutations; cited from earlier work
wild-type α-Gal A = molecular target: T1, wild-type α-Gal A (Homo sapiens, UniProt P06280); settings: transfected COS-7 cells; cited from earlier work
T1 construct: expressed in transfected cells; host or cells: COS-7
T1 sequence (P06280 32-429): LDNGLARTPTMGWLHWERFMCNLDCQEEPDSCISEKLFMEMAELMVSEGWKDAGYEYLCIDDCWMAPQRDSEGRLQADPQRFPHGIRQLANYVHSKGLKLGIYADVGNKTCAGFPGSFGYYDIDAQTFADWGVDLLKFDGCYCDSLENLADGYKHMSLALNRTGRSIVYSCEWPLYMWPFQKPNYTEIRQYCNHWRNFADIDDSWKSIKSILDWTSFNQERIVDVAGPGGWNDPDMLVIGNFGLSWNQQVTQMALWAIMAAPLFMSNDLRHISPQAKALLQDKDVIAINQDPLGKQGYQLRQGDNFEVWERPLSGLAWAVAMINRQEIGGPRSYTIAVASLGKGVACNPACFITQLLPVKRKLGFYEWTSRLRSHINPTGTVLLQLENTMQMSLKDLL

mutant (R301Q) α-Gal A = molecular target: T2, mutant (R301Q) α-Gal A (Homo sapiens, UniProt P06280, R301Q); settings: oral administration; transgenic mice overexpressing mutant (R301Q) α-Gal A; cited from earlier work
T2 construct: expressed in transfected cells; host or cells: transgenic mice (major organs)
T2 sequence (P06280 32-429 R301Q): T1 sequence (P06280 32-429) with R270Q

mutant α-Gal A (R301Q) = molecular target: T3, mutant α-Gal A (R301Q) (Homo sapiens, UniProt P06280, R301Q); settings: neutral pH; cited from earlier work
T3 sequence (P06280 32-429 R301Q): T1 sequence (P06280 32-429) with R270Q

For `OC[C@H]1NC[C@H](O)[C@@H](O)[C@H]1O` [DGJ, 1-deoxygalactonojirimycin], the “mutant enzyme activity in lymphoblasts” value [1] is given as “enhanced”, the “activity of wild-type α-Gal A” value (wild-type α-Gal A) is given as “able to increase” and the “amount of wild-type α-Gal A” value (wild-type α-Gal A) is given as “able to increase”. For the same molecule, the “enzyme activity in major organs” value (mutant (R301Q) α-Gal A) was “substantially elevated” and the “in vitro stability of mutant α-Gal A (R301Q)” value (mutant α-Gal A (R301Q)) was “effectively increased”.
